The values that follow come from patent US12139520B2 (priority 2020, dated 2024).

The target in one series is hAM1 receptor (Homo sapiens, UniProt O60895+Q16602). As to the kind of experiment: cAMP assay for in vitro receptor activation, hAM1-R. Format: cell-based. The following applies: cAMP assay, hAM1 receptor; read-out: hAM1R EC50. In a few lines:
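Receptor activation, read as cAMP, was assessed in thawed cells of a monoclonal hAM1-overexpressing stable line, plated at 8000 cells/well in DPBS supplemented with 0.05% casein and 0.5 mM IBMX.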

For the next series, the target named is T1, hAMY3 receptor (Homo sapiens, UniProt O60896+P30988).
T1 sequence (P30988 25-474): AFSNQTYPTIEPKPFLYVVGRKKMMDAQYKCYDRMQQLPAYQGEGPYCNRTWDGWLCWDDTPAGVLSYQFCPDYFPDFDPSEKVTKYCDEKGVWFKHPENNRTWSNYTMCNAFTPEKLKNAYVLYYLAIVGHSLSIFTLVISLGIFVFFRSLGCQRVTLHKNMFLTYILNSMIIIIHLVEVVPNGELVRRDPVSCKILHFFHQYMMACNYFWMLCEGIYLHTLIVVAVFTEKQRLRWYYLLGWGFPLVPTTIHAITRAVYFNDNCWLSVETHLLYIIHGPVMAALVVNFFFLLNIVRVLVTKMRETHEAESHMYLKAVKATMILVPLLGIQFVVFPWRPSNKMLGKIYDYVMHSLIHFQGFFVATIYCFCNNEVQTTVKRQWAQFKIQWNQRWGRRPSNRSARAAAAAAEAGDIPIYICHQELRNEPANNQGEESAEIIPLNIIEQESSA
T1 sequence (O60896 24-148 partner): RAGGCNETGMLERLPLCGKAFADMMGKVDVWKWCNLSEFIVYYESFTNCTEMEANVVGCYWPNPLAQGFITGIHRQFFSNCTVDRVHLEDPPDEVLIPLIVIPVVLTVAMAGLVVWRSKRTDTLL
Description: cAMP assay for in vitro receptor activation, hAMY3-R. The series is classed as cell-based. The following applies: cAMP assay, hAMY3 receptor; read-out: hAMY3R EC50. The essentials: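 Monoclonal cell line stably overexpressing hAMY3 receptor, plated in DPBS with 0.05% casein and 0.5 mM IBMX, was stimulated with graded compound doses for 30 min at room temperature. cAMP accumulation was read by time-resolved FRET one hour after adding detection reagents.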
Background: Changes in cAMP serve as a functional read-out for many G protein-coupled receptors.

A short description of series [1]: Physical stability of peptide analogues (Thioflavin T fibrillation). The following applies: maximum ThT signal normalized between hAMY maximum and buffer background; 40° C., shaking, four days; pH 7 per table title. The series is classed as physicochemical. In a few lines: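 Samples are stressed at 40 °C for four days, being shaken at 700 rpm before each 10-min fluorescence reading of 4 μM Thioflavin T. Buffers were pH 4 acetate or pH 7 phosphate. Reported values are smoothed maximum ThT signals as a percentage of the hAMY-to-background range.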

Molecules are shown by their SMILES. Bridge positions count the residues as written; N and C are the ends. Square brackets hold non-standard residues; d marks the D form. Peptide text beside a SMILES is read from it. Hyp = O=C(O)[C@@H]1C[C@@H](O)CN1

Chain of hAM1 receptor (Q16602 23-461): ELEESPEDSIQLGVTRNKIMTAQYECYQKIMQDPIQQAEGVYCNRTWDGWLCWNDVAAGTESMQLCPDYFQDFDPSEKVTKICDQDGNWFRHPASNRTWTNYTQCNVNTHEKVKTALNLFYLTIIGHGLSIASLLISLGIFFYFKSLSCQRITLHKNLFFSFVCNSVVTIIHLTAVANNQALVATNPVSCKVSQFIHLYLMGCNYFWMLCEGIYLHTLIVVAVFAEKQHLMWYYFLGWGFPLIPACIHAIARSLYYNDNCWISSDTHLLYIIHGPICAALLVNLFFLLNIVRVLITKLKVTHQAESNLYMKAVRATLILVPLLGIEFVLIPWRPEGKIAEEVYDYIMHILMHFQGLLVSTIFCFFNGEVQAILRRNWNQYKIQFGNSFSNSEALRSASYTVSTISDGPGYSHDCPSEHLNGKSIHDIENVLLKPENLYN
Chain of hAM1 receptor (O60895 43-175 partner): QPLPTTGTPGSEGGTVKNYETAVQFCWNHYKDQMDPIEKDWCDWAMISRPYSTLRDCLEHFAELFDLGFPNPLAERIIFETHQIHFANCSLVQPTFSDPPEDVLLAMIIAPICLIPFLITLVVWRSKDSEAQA

Turning to `CC[C@H](C)[C@H](NC(=O)[C@H](CCC(N)=O)NC(=O)[C@H](Cc1c[nH]cn1)NC(=O)[C@H](C)NC(=O)[C@H](CC(C)C)NC(=O)[C@H](CCCNC(=N)N)NC(=O)[C@H](CCC(N)=O)NC(=O)[C@@H](NC(=O)[C@@H](NC(=O)[C@@H]1CSSC[C@H](NC(=O)[C@@H](N)CCCCN)C(=O)N[C@@H](CC(N)=O)C(=O)N[C@@H]([C@@H](C)O)C(=O)N[C@@H](C)C(=O)N[C@@H]([C@@H](C)O)C(=O)N1)[C@@H](C)O)C(C)C)C(=O)N[C@@H](Cc1ccc(O)cc1)C(=O)N[C@@H](CCC(N)=O)C(=O)N[C@@H](Cc1ccccc1)C(=O)N[C@H](C(=O)N[C@@H](CC(=O)O)C(=O)N[C@@H](CCCCN)C(=O)N[C@@H](CC(=O)O)C(=O)N[C@@H](CCCCN)C(=O)N[C@@H](CC(=O)O)C(=O)N[C@@H](CC(N)=O)C(=O)N[C@H](C(=O)N[C@@H](C)C(=O)N1CCC[C@H]1C(=O)N[C@@H](C)C(=O)N[C@H](C(=O)N[C@@H](CC(N)=O)C(=O)N[C@H](C(=O)NCC(=O)N[C@@H](CO)C(=O)N[C@@H](CC(N)=O)C(=O)NCC(=O)N1C[C@H](O)C[C@H]1C(N)=O)C(C)C)[C@@H](C)O)C(C)C)[C@@H](C)O` [compound 28] (H-KCNTATCTVQRLAHQIYQFTDKDKDNVAPATNVGSNG[Hyp]-NH2; disulfide 2-7; N-terminus assumed), the EC50 (commonly the concentration that produces a half-maximal response) is over 5000 nM at hAM1 receptor and 0.008 nM on hAMY3 receptor. Moreover, the “Max ThT signal (%)” value in series [1] was determined as 8.200%.
Regarding `CC[C@H](C)[C@H](NC(=O)[C@H](CCC(N)=O)NC(=O)[C@H](CCC(=O)O)NC(=O)[C@H](C)NC(=O)[C@H](CC(C)C)NC(=O)[C@H](CCCNC(=N)N)NC(=O)[C@H](C)NC(=O)[C@@H](NC(=O)[C@@H](NC(=O)[C@@H]1CSSC[C@H](NC(=O)[C@@H](N)CCCNC(=N)N)C(=O)N[C@@H](CCC(N)=O)C(=O)N[C@@H]([C@@H](C)O)C(=O)N[C@@H](CO)C(=O)N[C@@H]([C@@H](C)O)C(=O)N1)[C@@H](C)O)C(C)C)C(=O)N[C@@H](C)C(=O)N[C@@H](CCC(N)=O)C(=O)N[C@@H](Cc1ccc(O)cc1)C(=O)N[C@H](C(=O)N[C@@H](CC(=O)O)C(=O)N[C@@H](CCCCN)C(=O)N[C@@H](CC(=O)O)C(=O)N[C@@H](CCCCN)C(=O)N[C@@H](CC(=O)O)C(=O)N[C@@H](CCC(N)=O)C(=O)N[C@H](C(=O)N[C@@H](C)C(=O)N1CCC[C@H]1C(=O)N1CCC[C@H]1C(=O)N[C@H](C(=O)N[C@@H](CC(N)=O)C(=O)N[C@H](C(=O)NCC(=O)N[C@@H](CO)C(=O)N[C@@H](CC(N)=O)C(=O)N[C@@H](CO)C(=O)N1C[C@H](O)C[C@H]1C(N)=O)C(C)C)[C@@H](C)O)C(C)C)[C@@H](C)O` [compound 32] (H-RCQTSTCTVARLAEQIAQYTDKDKDQVAPPTNVGSNS[Hyp]-NH2; disulfide 2-7; N-terminus assumed), the EC50 at hAM1 receptor is over 5000 nM; at hAMY3 receptor, 0.008 nM. Further, the “Max ThT signal (%)” value in series [1] was 5.300%.
As for `CC[C@H](C)[C@H](NC(=O)[C@H](CCC(N)=O)NC(=O)[C@H](Cc1c[nH]cn1)NC(=O)[C@H](C)NC(=O)[C@H](CC(C)C)NC(=O)[C@H](CCCNC(=N)N)NC(=O)[C@H](CCC(N)=O)NC(=O)[C@@H](NC(=O)[C@@H](NC(=O)[C@@H]1CSSC[C@H](NC(=O)[C@@H](N)CCCCN)C(=O)N[C@@H](CC(N)=O)C(=O)N[C@@H]([C@@H](C)O)C(=O)N[C@@H](C)C(=O)N[C@@H]([C@@H](C)O)C(=O)N1)[C@@H](C)O)C(C)C)C(=O)N[C@@H](Cc1ccc(O)cc1)C(=O)N[C@@H](C)C(=O)N[C@@H](Cc1ccccc1)C(=O)N[C@H](C(=O)N[C@@H](CC(=O)O)C(=O)N[C@@H](CCCCN)C(=O)N[C@@H](CC(=O)O)C(=O)N[C@@H](CCCCN)C(=O)N[C@@H](CC(=O)O)C(=O)N[C@@H](CC(N)=O)C(=O)N[C@H](C(=O)N[C@@H](C)C(=O)N1CCC[C@H]1C(=O)N1CCC[C@H]1C(=O)N[C@H](C(=O)N[C@@H](CC(N)=O)C(=O)N[C@H](C(=O)NCC(=O)N[C@@H](CO)C(=O)N[C@@H](CC(N)=O)C(=O)NCC(=O)N1C[C@H](O)C[C@H]1C(N)=O)C(C)C)[C@@H](C)O)C(C)C)[C@@H](C)O` [compound 42] (H-KCNTATCTVQRLAHQIYAFTDKDKDNVAPPTNVGSNG[Hyp]-NH2; disulfide 2-7; N-terminus assumed), the concentration giving a half-maximal response (EC50) was over 5000 nM on hAM1 receptor and 0.01 nM on hAMY3 receptor. Also, the “Max ThT signal (%)” value in series [1] stood at 6.300%.
Taken in the same sequence, the figures for `CC[C@H](C)[C@H](NC(=O)[C@H](CCC(N)=O)NC(=O)[C@H](Cc1c[nH]cn1)NC(=O)[C@H](C)NC(=O)[C@H](CC(C)C)NC(=O)[C@H](CCCNC(=N)N)NC(=O)[C@H](CCC(N)=O)NC(=O)[C@@H](NC(=O)[C@@H](NC(=O)[C@@H]1CSSC[C@H](NC(=O)[C@@H](N)CCCCN)C(=O)N[C@@H](CC(N)=O)C(=O)N[C@@H]([C@@H](C)O)C(=O)N[C@@H](C)C(=O)N[C@@H]([C@@H](C)O)C(=O)N1)[C@@H](C)O)C(C)C)C(=O)N[C@@H](Cc1ccc(O)cc1)C(=O)N[C@@H](CCC(N)=O)C(=O)N[C@@H](Cc1ccccc1)C(=O)N[C@H](C(=O)N[C@@H](CC(=O)O)C(=O)N[C@@H](CCCCN)C(=O)N[C@@H](C)C(=O)N[C@@H](CCCCN)C(=O)N[C@@H](CC(=O)O)C(=O)N[C@@H](CC(N)=O)C(=O)N[C@H](C(=O)N[C@@H](C)C(=O)N1CCC[C@H]1C(=O)N1CCC[C@H]1C(=O)N[C@H](C(=O)N[C@@H](CC(N)=O)C(=O)N[C@H](C(=O)NCC(=O)N[C@@H](CO)C(=O)N[C@@H](CC(N)=O)C(=O)NCC(=O)N1C[C@H](O)C[C@H]1C(N)=O)C(C)C)[C@@H](C)O)C(C)C)[C@@H](C)O` [compound 43] (H-KCNTATCTVQRLAHQIYQFTDKAKDNVAPPTNVGSNG[Hyp]-NH2; disulfide 2-7; N-terminus assumed) were over 5000 nM, 0.01 nM and 1.200%.
In the same order, the values of `CC[C@H](C)[C@H](NC(=O)[C@H](CCC(N)=O)NC(=O)[C@H](Cc1c[nH]cn1)NC(=O)[C@H](C)NC(=O)[C@H](CC(C)C)NC(=O)[C@H](CCCNC(=N)N)NC(=O)[C@H](CCC(N)=O)NC(=O)[C@@H](NC(=O)[C@@H](NC(=O)[C@@H]1CSSC[C@H](NC(=O)[C@@H](N)CCCCN)C(=O)N[C@@H](CC(N)=O)C(=O)N[C@@H]([C@@H](C)O)C(=O)N[C@@H](C)C(=O)N[C@@H]([C@@H](C)O)C(=O)N1)[C@@H](C)O)C(C)C)C(=O)N[C@@H](Cc1ccc(O)cc1)C(=O)N[C@@H](CCC(N)=O)C(=O)N[C@@H](Cc1ccccc1)C(=O)N[C@H](C(=O)N[C@@H](CC(=O)O)C(=O)N[C@@H](CCCCN)C(=O)N[C@@H](CC(=O)O)C(=O)N[C@@H](CCCCN)C(=O)N[C@@H](CC(=O)O)C(=O)N[C@@H](C)C(=O)N[C@H](C(=O)N[C@@H](C)C(=O)N1CCC[C@H]1C(=O)N1CCC[C@H]1C(=O)N[C@H](C(=O)N[C@@H](CC(N)=O)C(=O)N[C@H](C(=O)NCC(=O)N[C@@H](CO)C(=O)N[C@@H](CC(N)=O)C(=O)NCC(=O)N1C[C@H](O)C[C@H]1C(N)=O)C(C)C)[C@@H](C)O)C(C)C)[C@@H](C)O` [compound 52] (H-KCNTATCTVQRLAHQIYQFTDKDKDAVAPPTNVGSNG[Hyp]-NH2; disulfide 2-7; N-terminus assumed) are over 5000 nM, 0.011 nM and 7.600%.
